Key:
[1] = Solubility of compound; type: physicochemical
Rattus norvegicus [2] = experiment: Cmax in Sprague-Dawley rat at 10 mg/kg, po measured at 5 mins by LC-MS/MS method; type: ADME, organism-based; set-up: dose 10 mg/kg, route oral; settings: in vivo
Mus musculus [3] = experiment: Oral bioavailability in CD1 mouse at 10 mg/kg by LC-MS/MS method; type: ADME, organism-based; settings: in vivo
[4] = Apparent permeability across basolateral to apical side in human Caco2 cells; type: ADME, cell-based; settings: caco-2
[5] = AUC (0 to infinity) in Sprague-Dawley rat at 2 mg/kg, iv by LC-MS/MS method; type: ADME, organism-based; set-up: dose 2 mg/kg, time infinity, route intravenous; settings: in vivo
[6] = Apparent permeability across apical to basolateral side in human Caco2 cells; type: ADME, cell-based; settings: caco-2
[7] = AUC (0 to infinity) in Sprague-Dawley rat at 10 mg/kg, po by LC-MS/MS method; type: ADME, organism-based; set-up: dose 10 mg/kg, route oral, time infinity; settings: in vivo
Rattus norvegicus [8] = experiment: Oral bioavailability in Sprague-Dawley rat at 10 mg/kg by LC-MS/MS method; type: ADME, organism-based; settings: in vivo
[9] = Permeability of the compound by PAMPA; type: ADME
Mus musculus [10] = experiment: Cmax in CD1 mouse at 2 mg/kg, iv measured at 5 mins by LC-MS/MS method; type: ADME, organism-based; set-up: dose 2 mg/kg, route intravenous; settings: in vivo
[11] = Volume of distribution at steady state in Sprague-Dawley rat at 2 mg/kg, iv by LC-MS/MS method; type: ADME, organism-based; settings: in vivo, read-out: Vdss
Mus musculus [12] = experiment: Cmax in CD1 mouse at 10 mg/kg, po measured at 5 mins by LC-MS/MS method; type: ADME, organism-based; set-up: dose 10 mg/kg, route oral; settings: in vivo
Rattus norvegicus [13] = experiment: Cmax in Sprague-Dawley rat at 2 mg/kg, iv measured at 5 mins by LC-MS/MS method; type: ADME, organism-based; set-up: dose 2 mg/kg, route intravenous; settings: in vivo

Row | solubility [1] | Cmax (Rattus norvegicus [2]) | AUC(0-inf) [5] | AUC(0-inf) [7] | F (Rattus norvegicus [8]) | Vd [11] | Cmax (Rattus norvegicus [13]) | SMILES | F (Mus musculus [3]) | Papp [4] | Papp [6] | permeability [9] | Cmax (Mus musculus [10]) | Cmax (Mus musculus [12])
1 | < 1 µg/mL |  |  |  |  |  |  | COc1ccc(S(=O)(=O)c2cnc3ccc(OC)cc3c2N2CCC3(CC2)OCCO3)cc1 |  |  |  |  |  | 
2 |  | 1980 ng/mL | 3160 ng·h/mL | 7540 ng·h/mL | 48% | 0.7 L/kg | 2587 ng/mL | CS(=O)(=O)N1CCN(C(=O)c2cnc3ccc(F)cc3c2-c2ccc(C3(C#N)CC3)cc2)CC1 | 76% | 22.4 ×10⁻⁶ cm/s | 5.76 ×10⁻⁶ cm/s | 388 ×10⁻⁶ cm/s | 1997 ng/mL | 1530 ng/mL
3 |  |  |  |  |  |  |  | CS(=O)(=O)N1CCN(C(=O)c2cnc3ccc(F)cc3c2N2CCC(C#N)(c3ccccc3)CC2)CC1 | 44% | 17.2 ×10⁻⁶ cm/s | 11.4 ×10⁻⁶ cm/s | 725 ×10⁻⁶ cm/s | 2350 ng/mL | 1234 ng/mL

Reference: ChEMBL document CHEMBL4184337, “Discovery of Orally Bioavailable, Quinoline-Based Aldehyde Dehydrogenase 1A1 (ALDH1A1) Inhibitors with Potent Cellular Activity” (J Med Chem, 2018)
